Data reported in patent publication US8372848B2, “Melanin-concentrating hormone receptor antagonists and methods of use” (Mixture Sciences, Inc., priority 2004, dated 2013).
Entries after “also recorded” stand apart in the source; their conditions may differ.

Legend:
[1] = target: T1, rat MCH1R (Rattus norvegicus, UniProt P97639); assay: [125I] MCH binding to membrane fractions of MCH1R expressing HEK-293T
Experimental: Cell pellet was homogenized with ice-cold 50 mM Tris-HCl buffer (pH 7.4) containing 5 mM EDTA, and ultra-centrifuged twice at 48,000×g for 20 min at 4° C. The pellets were then suspended in 50 mM Tris-HCl (pH 7.4) buffer containing 5 mM EDTA and used as membrane fractions. […] The radioactivity retained in the filters was determined with a γ-counter. IC50 values calculated as described above are expressed as the mean +S.E.M. for three independent determinations. DNA was mixed with LipofectAMINE transfection reagents (Life Technologies, MD), and the mixture was diluted with Opti-MEM and added to 60-70% confluent HEK 293T cells plated on 100-mm dishes. The transfected cells were cultured in DMEM containing 10% FBS.

[2] = system: rats; assay: Conditioned place aversion (CPA), Example VII; assay type: in vivo, rat; details: 10 nmole i.c.v. on conditioning days 2,3; test day 4; listed as TPI
Experimental: Rats were randomly divided into two (2) groups of eight (8) rats each (Groups I and II). Testing was performed in four identical place-conditioning chambers (43×43×30.5 cm) connected to a common interface and computer (MED Associates, Inc., St. Albans, Vt.). Test chambers had two equal compartments, each with unique sensory cues. One compartment had black and white striped walls, a stainless-steel wire mesh floor (0.16-cm wire with 1.27-cm openings), corncob bedding, and lemon-scented water applied to the walls immediately before each test. The other compartment had white walls with black dots, stainless-steel grid floor (0.48-cm rods placed 1.6 cm apart), wood-chip bedding, and banana-scented water applied to the walls. The two compartments were separated by a middle wall with a black guillotine door in the center. All rats were weighed and acclimated to the test room for 20 min each day before being placed into the apparatus.
The CPA test consisted of three phases. During the preconditioning phase (day 1), the animals were placed into the chamber for 15 min. During the conditioning phase (day 2,3), animals were injected i.c.v with either 0 (Group I—n=8) or 10 nmole (Group 2—n=8) of TPI and confined to one side for 20 min. […] The activity of the animals was monitored for 15 min.

[3] = system: rats; assay: Spontaneous activity (ambulatory and non-ambulatory movements) after icv administration, Example IV; assay type: in vivo, rat
Experimental: To determine the effect of TPI 1361-17 on spontaneous activity on rats, intraventricular cannulated rats were acclimatized to the testing situation. […] Ambulatory movements and non-ambulatory movements were monitored for 60 minutes upon administration of five nmol TPI 1361-17 or ACSF (FIGS. 4A, 4B).
For these experiments, ambulatory movements were recorded using a Hamilton-Kinder Activity Monitor (with the infrared beams in a 4×8 configured frame). Locomotion was quantified in transparent polycarbonate cages (32×26×20 cm) placed within the activity frames. Animal position was detected by two dimensional beam breaks. The ambulation was tabulated as a movement that results in the change of location. All other beam breaks are categorized as non-ambulatory, fine movement. Animals were acclimatized to the novel home cage-environment for 60 minutes before injection, then were removed, injected and immediately replaced in the same cage, and monitoring began. Locomotion was measured for 60 minutes after the ICV administration of either ACSF or 5 nmol TPI 1361-17.
For animal studies, adult male Sprague-Dawley rats weighing 200-300g were obtained from Charles River Laboratories (Wilmington, Mass.), bearing a 23-gauge stainless steel cannula placed into the right lateral ventricle. […]

[4] = target: T1, rat MCH1R; assay: MCH-induced Ca2+ mobilization (FLIPR) in HEK 293T cells expressing rat MCH1R; assay type: cell-based
[5] = system: rats; assay: MCH-induced food intake after icv administration; assay type: in vivo, rat
Experimental: To determine inhibitory effects of TPI 1361-17 on MCH-induced food intake, rats were habituated to a wire bottom cage for more than 3 weeks prior to the experiment. Experiments were carried out from 6 a.m. to 7 a.m. when rats were satiated. […] On the other hand, five nmol of TPI 1361-17 suppressed cumulative food intake by 75% even at 4h (FIG. 5B).
To determine the effects of TPI 1361-17 on MCH-induced food intake, rats were randomly divided into three groups: 1) TPI 1361-17 (dissolved in DMSO) and 2 nmol of MCH; 2) MCH 2 nmol, 3) ACSF. Each mixture contained a DMSO equivalent concentration to that of the antagonist solution (up to 5% (v/v)). Ten μl of each solution was administered into lateral ventricle for 2 minutes. The injections were done between 7:00-8:00 a.m., and food intake was monitored for 4 h after the injection.
For animal studies, adult male Sprague-Dawley rats weighing 200-300g were obtained from Charles River Laboratories (Wilmington, Mass.), bearing a 23-gauge stainless steel cannula placed into the right lateral ventricle. Rats were housed individually and maintained on a 12 h light-dark cycle (6:00 am-6:00 pm light) with free access to tap water and rat chaw (PROLAB RMH 2500, containing 23.0% protein, 4.5% fat, gross energy 4.5 kcal/g. PMI nutrition international, LLC. Brentwood, Mo.). Prior to all studies, rats were handled and habituated for 7 days, and 10 μl of artificial cerebrospinal fluid (ACSF: NaCl 124, KCl 5, CaCl2 2.4 MgSO4 2, KH2PO4 1.25, NaHCO3 26 and glucose 10, in mM) was injected through the cannula to minimize stress effects at the time of the experiment. Cannula placement was confirmed in all animals by evaluating the response to 50 ng of angiotensin II. Only animals drinking more than 5 ml of water in 1 h were used in feeding studies.

T1 sequence (P97639 whole entry): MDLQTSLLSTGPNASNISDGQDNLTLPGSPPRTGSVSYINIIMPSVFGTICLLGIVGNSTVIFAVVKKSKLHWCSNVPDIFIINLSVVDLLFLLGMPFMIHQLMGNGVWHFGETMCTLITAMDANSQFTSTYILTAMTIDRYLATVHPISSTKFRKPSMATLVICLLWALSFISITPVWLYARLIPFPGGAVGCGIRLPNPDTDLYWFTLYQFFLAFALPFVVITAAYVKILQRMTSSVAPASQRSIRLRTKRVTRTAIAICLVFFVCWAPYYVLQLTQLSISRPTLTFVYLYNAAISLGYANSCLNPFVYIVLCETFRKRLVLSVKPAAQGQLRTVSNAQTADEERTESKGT

Displacement of [125I] MCH binding to rat MCH1R [1]: completely displaced
IC50 ([1]; mean ±S.E.M., 0.1 nM radioligand, read-out: IC50 for displacement of [125I] MCH binding): 140 ± 34.6 nM
Total amounts of non-ambulatory or ambulatory movements versus ACSF ([3]; 5 nmol icv, 60 minutes): no significant differences
IC50 ([4]; 1 nM MCH, HEK 293T cells expressing rat MCH1R): 6.1 nM
Slope of Schild regression ([4]; r2=0.975): 1.085±0.010
Kb ([4]; read-out: Kb predicted from Schild regression): 0.37 nM
pA2 (Schild regression) ([4]; shift of MCH dose response curves): 9.43
Change of basal Ca2+ level by the compound itself ([4]; without MCH): did not change the basal Ca^2+ level
SMILES: C[C@@H](CNCc1ccccc1)N1C[C@H](CCCNC(=N)N)N(CCc2cccc(F)c2)C1=S [TPI 1361-17, N-(3-{(4S)-1-[(1S)-2-(benzylamino)-1-methylethyl]-3-[2-(3-fluorophenyl)ethyl]-2-thioxoimidazolidin-4-yl}propyl)guanidine]
Conditioned place aversion [2]: did not cause conditioned place aversion; also recorded: lack of conditioned place aversion
Detectable changes in movement ([3]; five or one nmol icv): did not exhibit any detectable changes in movement; also recorded: did not affect locomotion or fine movements
MCH-induced food intake at the low dose ([5]; 1 nmol icv with 2 nmol MCH, reversed over the next two hours): decreased MCH-induced food intake for 1 h and 2h
Suppression of cumulative MCH-induced food intake ([5]; 5 nmol icv with 2 nmol MCH, at 4h): 75%
Reduction of MCH-induced food intake, maximal ([5]; dose dependent, icv, SD rats, beginning of light phase): up to 75%
Duration of the effect on MCH-induced food intake ([5]; icv): over 4 h
